Assay results from patent US8916516B2, “Treatment of fungal and/or protist infections” (AI2 Limited, priority 2005, dated 2014).
Where two headings read alike, the source gives them in different places.

Tests used:
[1] = tested on: Staphylococcus aureus (Oxford strain); assay: microbe, parasite or virus in culture; format: cell-based
Protocol: (§1) Four compounds were supplied as an aqueous solution, 400 μM. Serial dilutions of each test peptide were prepared in addition to a control, which was a conventional antifungal drug, Amphoteracin B. Amphteracin B is obtained from Invitrogen or Melford laboratories.
(§2) Initial testing of the peptides was carried out against the following organisms: • 1) Aspergillus fumigatus AF293 (culture collection strain NCPF7367) • 2) Candida albicans 6862 (clinical isolate) • 3) Fusarium spp 5889 (clinical isolate) • 4) Fusarium spp 6507 (clinical isolate) • 5) Aspergillus terreus (clinical isolate) • 6) Aspergillus niger (clinical isolate) • 7) Staphylococcus aureus (Oxford strain, which is a standard reference strain used in MIC testing)
(§3) The bacterium S. aureus was tested with each of the peptides as a control. A suspension of each organism in an appropriate growth medium was added to the, dilutions of the peptides in order to give concentration ranges of 40 μM to 0.04 μM for each of the peptides, and 64-0.025 μg/ml for amphotericin B. Fungal strains were tested in RPMI media. RPMI is standard Roswell Park Memorial Institute medium (Morton, H. C., (1970) A survey of Commercially Available Tissue Culture Media. In Vitro 6: 89-108).
S. aureus was tested in Isosensitest broth. Isosentitest agar is a standard MIC medium used by many hospital labs for bacterial MICs using a disc diffusion method. The reference standard is Oxoid CM471. Also available in broth form, CM473, for the bacterial broth dilution assay method. NCCLS ref M7-A4. Both the NCCLS methods quoted are the standard methods.
(§4) The final inoculum for S. aureus was 5×10^4 cfu/ml. The final inoculum for C. albicans was 2×10^3 cfu/ml. The final inoculum for Aspergillus fumigatus and for Fusarium spp was 2×10^4 cfu/ml.
(§5) Candida and S. aureus plates were read after 24 hrs incubation and the Aspergillus and Fusarium strains read after 48 hrs. The MIC was taken as the lowest drug or compound concentration that caused >80% reduction in growth compared with a drug free control.

[2] = tested on: Aspergillus niger (clinical isolate); assay: microbe, parasite or virus in culture; format: cell-based
Protocol: as §1, §2, §3, §5

[3] = tested on: Aspergillus terreus (clinical isolate); assay: microbe, parasite or virus in culture; format: cell-based
Protocol: as §1, §2, §3, §5

[4] = tested on: Fusarium spp 5889 (clinical isolate); assay: Antifungal MIC broth dilution (Example 1); format: cell-based; details: RPMI, 48 hrs, >80% reduction
Protocol: as §1, §2, §3, §4, §5

[5] = tested on: Fusarium spp 6507 (clinical isolate); assay: Antifungal MIC broth dilution (Example 1); format: cell-based; details: RPMI, 48 hrs, >80% reduction
Protocol: as §1, §2, §3, §4, §5

[6] = tested on: Fusarium solani 2 (FS2); assay: Antifungal MIC (Example 4); format: cell-based; set-up: MIC values (>80% reduction) FS2, positive control: unit not given beside the values; details: for MIC values (>80% reduction) FS2: Fusarium solani 2, peptides, Tables 4 and 5
Protocol: (§6) The inventor expanded the work conducted in Example 1 by testing an expanded library of peptides derived from either apolipoprotein B or apolipoprotein E in order to further evaluate polypeptides in accordance with the invention. These experiments were conducted using the following fungal species:
(§7) FS1-FS4 were obtained from Bristol PHLS (British Public Health Laboratory Service UK). Aspergillus fumigatus 293 is publicly available as culture collection strain NCPF7367 (National Collection of Pathogenic Fungi Public Health Laboratory, Mycological Reference Laboratory Myrtle Road, Kingsdown, Bristol BS2 8EL) The Candida albicans was a clinical isolate obtained by standard means.
(§8) The methods used to determine, the IC50 values for each peptide were as described in the Example 1.

[7] = tested on: Fusarium solani 4 (FS4); assay: Antifungal MIC (Example 4); format: cell-based; set-up: MIC values (>80% reduction) FS4, positive control: unit not given beside the values; details: for MIC values (>80% reduction) FS4: Fusarium solani 4, peptides, Tables 4 and 5
Protocol: as §6, §7, §8

[8] = tested on: Aspergillus fumigatus AF293 (NCPF7367); assay: microbe, parasite or virus in culture; format: cell-based; set-up: MIC values (>80% reduction) AF, positive control: unit not given beside the values; details: for MIC values (>80% reduction) AF: Aspergillus fumigatus 293, peptides, Tables 4 and 5
Protocol: as §1, §2, §3, §4, §5
Aspergillus fumigatus 293 (AF); and
FS1-FS4 were obtained from Bristol PHLS (British Public Health Laboratory Service UK). Aspergillus fumigatus 293 is publicly available as culture collection strain NCPF7367 (National Collection of Pathogenic Fungi Public Health Laboratory, Mycological Reference Laboratory Myrtle Road, Kingsdown, Bristol BS2 8EL) The Candida albicans was a clinical isolate obtained by standard means. […]

[9] = tested on: Fusarium solani 1 (FS1); assay: Antifungal MIC (Example 4); format: cell-based; set-up: MIC values (>80% reduction) FS1, positive control: unit not given beside the values; details: for MIC values (>80% reduction) FS1: Fusarium solani 1, peptides, Tables 4 and 5
Protocol: as §6, §7, §8

[10] = tested on: Candida albicans 6862 (clinical isolate); assay: microbe, parasite or virus in culture; format: cell-based
Protocol: as §1, §2, §3, §4, §5

[11] = tested on: Fusarium solani 3 (FS3); assay: Antifungal MIC (Example 4); format: cell-based; set-up: MIC values (>80% reduction) FS3, positive control: unit not given beside the values; details: for MIC values (>80% reduction) FS3: Fusarium solani 3, peptides, Tables 4 and 5
Protocol: as §6, §7, §8

[12] = tested on: Candida albicans (CA), clinical isolate; assay: Antifungal MIC (Example 4); format: cell-based; details: peptides, Tables 4 and 5
Protocol: as §6, §7, §8

[13] = tested on: P. berghei sporozoites; assay: Sporozoite development assay in Hepa 1-6 cells (Example 5); format: cell-based, Plasmodium berghei; details: for inhibition of entry of P. berghei into Hep 1-6 cells: sporozoites pre-incubated with polypeptide at 50 μg/ml, plated on cells with peptide present, FIG. 5(A)
Protocol: 3-5 day-old Anopheles stephensi mosquitoes were fed on anesthetized P. berghei (NK65)-infected Swiss Webster mice which had been checked by blood smear for the abundance of gametocyte-stage parasites. Salivary gland sporozoites were harvested on days 18 to 21 post-infective blood meal. The mosquitoes were rinsed in 70% ethanol and washed in Dulbecco's Modified Eagle Medium (DMEM) before salivary gland dissection. The glands were gently ground, spun at 80×g for 3 min to remove mosquito debris and sporozoites counted in a hemocytometer.
Hepa 1-6 cells (ATCC CRL-1830, American Type Culture Collection, Manassas, Va.), a mouse hepatoma cell line permissive for P. berghei sporozoite development were seeded (8×10^4 cells/well) in Lab-Tek permanox chamber slides (Nalgene Nunc Corp., Naperville, Ill.) and grown until confluent. On the day of the experiment, sporozoites were dissected from mosquitoes and pre-incubated with Dulbecco's Modified Eagle Medium (DMEM; Invitrogen, Carlsbad, Calif.) with 1% BSA alone or with the indicated polypeptide at 50 μg/ml for 1 hr at 28° C. and plated on cells in the continued presence of the inhibitor in DMEM containing 10% fetal calf serum (complete medium). After 1 hr at 37° C., the medium containing unattached sporozoites and polypeptide was removed and replaced with complete medium. […] The number of EEFs in each well were counted with a 40× objective on a Nikon fluorescent microscope. In other experiments, Hepa1-6 cells were pretreated with the polypeptides at 50 μg/ml in complete medium for 1 hour, washed and then sporozoites were added in complete medium without polypeptide and the assay was continued as outlined above.

[14] = tested on: Acanthamoeba polyphaga (trophozoites), Ros strain; assay: Microtitre plate assay against Acanthamoeba trophozoites (Example 2); format: cell-based; details: for MATC = minimum amoebacidal trophozoite concentration: lowest concentration killing the trophozoite challenge
Excerpt: The test compounds were screened against the trophozoites of clinical isolates of Acanthamoeba spp. using a microtitre plate assay procedure. The organisms were Acanthamoeba polyphaga. (see for details on the strain and methodology used: Hughes, R. & Kilvington, S. (2001). A comparison of hydrogen peroxide contact lens disinfection systems and solutions against Acanthamoeba polyphaga. Antimicrob. Agents Chemother. 45: 2038-2043.) Acanthamoeba polyphaga Ros strain was used throughout the study. The strain was originally isolated from an unpublished case of acanthamoeba keratitis in the United Kingdom in 1994.
Use of the microliter plate assay enabled the determination of the minimum amoebacidal trophozoite concentration (MATC), which is the minimum amoebacidal trophozoite concentration (μg/ml)=lowest concentration killing the trophozoite challenge […] and also the minimum inhibitory trophozoite concentration (MITC), which is the minimum inhibitory trophozoite concentration (μg/ml)=lowest concentration stopping the trophozoites from dividing or killing about 50% of population. The values may then be used to select drug concentrations for use in time-kill experiments to study the kinetics of Acanthamoeba killing.

[15] = tested on: fungi; format: cell-based
Protocol: as §1, §2
The bacterium S. aureus was tested with each of the peptides as a control. […] RPMI is standard Roswell Park Memorial Institute medium (Morton, H. C., (1970) A survey of Commercially Available Tissue Culture Media. In Vitro 6: 89-108).
as §5, §8

[16] = tested on: bacteria; details: reported by Azuma et al., Peptides 21: 327-330 (2000); cited from earlier work

Molecule | MIC ([1]; Oxford strain, 24 h) | MIC ([2]; clinical isolate) | MIC [3] | MIC [4] | MIC [5] | MIC values (>80% reduction) FS2 [6] | MIC values (>80% reduction) CA [12] | inhibition of entry of P. berghei into Hep 1-6 cells [13] | MATC = minimum amoebacidal trophozoite concentration [14] | MIC values (>80% reduction) FS4 [7] | MIC ([8]; AF293 (NCPF7367, 48 h)) | MIC values (>80% reduction) AF [8] | MIC values (>80% reduction) FS1 [9] | MIC ([10]; 6862 (clinical isolate, 24 h)) | MIC values (>80% reduction) FS3 [11] | antibacterial activity (in words) [16] | further results
C[C@@H]1[C@H](O)[C@@H](C)/C=C/C=C/C=C/C=C/C=C/C=C/C=C/[C@H](O[C@@H]2O[C@H](C)[C@@H](O)[C@H](N)[C@@H]2O)C[C@@H]2O[C@](O)(C[C@@H](O)C[C@@H](O)[C@H](O)CC[C@@H](O)C[C@@H](O)CC(=O)O[C@H]1C)C[C@H](O)[C@H]2C(=O)O [Amphotericin B, reference compound] |  |  |  |  |  |  |  |  |  |  |  |  |  |  |  |  | MIC ([1]; Staphylococcus aureus, Staph aureus (Oxford), Isosensitest broth, 24 hrs, read-out: MIC): > 40 µg/mL; MIC ([2]; Aspergillus niger, RPMI, >80% reduction, read-out: MIC): 0.15 µg/mL; MIC ([3]; Aspergillus terreus, RPMI, >80% reduction, read-out: MIC): 1.25 µg/mL; MIC ([4]; read-out: MIC): 2.5 µg/mL; MIC ([5]; read-out: MIC): 1.25 µg/mL; MIC values (>80% reduction) FS2, positive control ([6]; Amphotericin B, second of five values, unit not given): 1.25; MIC values (>80% reduction) FS4, positive control ([7]; Amphotericin B, fourth of five values, unit not given): 0.15; MIC values (>80% reduction) AF, positive control ([8]; Amphotericin B, fifth of five values, unit not given): 0.04; MIC ([8]; NCPF7367, Aspergillus fumigatus, RPMI, read after 48 hrs, >80% reduction, read-out: MIC): 0.6 µg/mL; MIC values (>80% reduction) FS1, positive control ([9]; Amphotericin B, first of five values, unit not given): 0.15; MIC ([10]; Candida albicans, C. albicans 6862, RPMI, read after 24 hrs, >80% reduction in growth, read-out: MIC): 0.6 µg/mL; MIC values (>80% reduction) FS3, positive control ([11]; Amphotericin B, third of five values, unit not given): 0.3
Ac-LRKLRKRLLLRKLRKRLL-NH2 [MU_10] | >40 µM | >40 µM | >40 µM | 10 µM | >40 µM | 5 µM | >40 µM | inhibit entry of P. berghei into Hep 1-6 cells | 207.1 µM | 5 µM | >40 µM | >40 µM | 2.5 µM | >40 µM | 2.5 µM |  | 
Ac-WRKWRKRLLLRKLRKRLL-NH2 [MU_114] | 40 µM | 20 µM | >40 µM | 5 µM | 40 µM |  |  |  |  |  | >40 µM |  |  | >40 µM |  |  | MATC = minimum amoebacidal trophozoite concentration ([14]; listed as MU 114): 98.7 µM; MATC = minimum amoebacidal trophozoite concentration ([14]; listed as MU114): 93.8 µM; antifungal activity (in words) ([15]; overall statement on the fungi tested): showed antifungal activity
Ac-WRKWRKRWWWRKWRKRWW-NH2 [MU_4] | 5 µM | 1.25 µM | >40 µM | 2.5 µM | 10 µM | 0.3 µM | 2.5 µM | inhibit entry of P. berghei into Hep 1-6 cells | 41.7 µM | 0.3 µM | 2.5 µM | 1.25 µM | 0.3 µM | 10 µM | 0.3 µM |  | block of P. berghei entry after pretreatment of cells ([13]; cells treated with peptide at 50 μg/ml for 1 hour, washed, then sporozoites added, FIG. 5(B)): retained its ability to block P. berghei entry; MITC = minimum inhibitory trophozoite concentration ([14]; lowest concentration stopping trophozoites dividing or killing about 50% of population): 20.8 µM; IC50 ([15]; fungus not specified, read-out: IC50 value for inhibiting fungal growth): ≤ 2500 nM
apoE134-151: Azuma's apolipoprotein E peptide, 18 amino acids in length (RVRLASHLRKLRKRLLRD; UniProt P02649 152-169, looked up, fragment) |  |  |  |  |  |  |  |  |  |  |  |  |  |  |  | no activity at all | 
apoE134-155: Azuma's apolipoprotein E peptide, 22 amino acids in length (RVRLASHLRKLRKRLLRDADDL; UniProt P02649 152-173, looked up, fragment) |  |  |  |  |  |  |  |  |  |  |  |  |  |  |  | very low antibacterial activity | 
